Data as given in PubChem BioAssay (NCI).
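Compound exposure: 48 hours, 5 concentrations, 96-well plates. Definition used: TGI = concentration required for complete inhibition of growth.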

Assays:
Test in all cases: NCI-60 cell line screen, 48 h
A549 NSCLC = tested on: A549 NSCLC
LOX IMVI melanoma = tested on: LOX IMVI melanoma
MDA-MB-231 breast = tested on: MDA-MB-231 breast
OVCAR-3 ovarian = tested on: OVCAR-3 ovarian
SK-MEL-5 melanoma = tested on: SK-MEL-5 melanoma
SN12C renal = tested on: SN12C renal
SR leukemia = tested on: SR leukemia
U251 CNS = tested on: U251 CNS
UACC-257 melanoma = tested on: UACC-257 melanoma
UO-31 renal = tested on: UO-31 renal

Row | Structure (SMILES) | TGI (A549 NSCLC) [µM] | TGI (LOX IMVI melanoma) [µM] | TGI (MDA-MB-231 breast) [µM] | TGI (OVCAR-3 ovarian) [µM] | TGI (SK-MEL-5 melanoma) [µM] | TGI (SN12C renal) [µM] | TGI (SR leukemia) [µM] | TGI (U251 CNS) [µM] | TGI (UACC-257 melanoma) [µM] | TGI (UO-31 renal) [µM]
1 | O=C1CC(c2cccc([N+](=O)[O-])c2)C2(C(=O)NC(=S)NC2=O)C(c2cccc([N+](=O)[O-])c2)C1 (stereo not given) | > 100 | 34 | 62.4 | > 100 | > 100 | 52.3 | > 100 | 81.3 | > 100 | > 100
2 | Cc1cc2ccccc2oc(=O)/c1=N\Nc1ccccc1 | > 100 | > 100 | 77.9 | > 100 | > 100 | > 100 | > 100 | > 100 | > 100 | > 100
3 | Clc1cc(Cl)nc(Nc2ccc3c(c2)CCC3)n1 | > 100 | 91.1 | > 100 | > 100 | 57.5 | > 100 | 77.6 | > 100 | > 100 | > 100
4 | O=C1OC2(CCCCC2)C(Oc2ccc(Cl)cc2)=C1F | > 100 | > 100 | > 100 | > 100 | 33.3 | > 100 | > 100 | > 100 | 66.8 | > 100
5 | Cc1cc(C)c(S(=O)(=O)N(CCCCCN)OCCCN)c(C)c1 | 36 | 36.8 | 49 | 36.2 | 35.5 | 33.3 | 43.9 | 35.4 | 32 | 27.1
6 | CC(C)(C)OC(=O)NCC(c1c[nH]c2ccccc12)c1c[nH]c2ccccc12 | 29.2 | 35.3 | 31.9 | 30.6 | 26.7 | 32.7 | 32.4 | 29.8 | 28.6 | 27.4
7 | C=C1c2nc3ccccc3n2C=C(c2ccccc2)N1c1ccc(C)cc1 | > 100 | > 100 | > 100 | > 100 | > 100 | > 100 | > 100 | > 100 | > 100 | > 100
8 | O=Cc1c2c(cc3c1CC1(C3)Cc3cc4c(c(C=O)c3C1)CCC4)CCC2 | 87.5 | 51.1 | 70.1 | > 100 | > 100 | > 100 | 73 | 38.4 | > 100 | 6.38
9 | C[C@H](CCc1nc(C#N)c(N)o1)[C@H]1CC[C@H]2[C@@H]3CCC4C[C@@H](O)CC[C@]4(C)[C@H]3C[C@@H](O)[C@]12C (stereo not given in full) | 23 | 23.8 | 32.7 | 27.3 | 29.5 | 24.6 | 29 | 26.5 | 20.4 | 16.6
10 | Cc1oc(N)c(S(=O)(=O)/C(C#N)=C/c2ccccc2[N+](=O)[O-])c1C | 59.7 | 28.5 | 82.6 | 46.3 | 38.1 | 47.8 | 40.2 | 36.3 | > 100 | 30.6
11 | O=C(NNC(=O)c1ccc(Cl)cc1NC(=O)C12CC3CC(CC(C3)C1)C2)c1ccc(Cl)cc1 | 42.8 | 37.7 | 51.2 | 58.3 | 36.5 | > 100 | 63.8 | 45.4 | 66.1 | 33.7
12 | O=S1(=O)N=C(SCc2c[nH]c3ccccc23)N(c2ccccc2)c2ccncc21 | > 100 | > 100 | > 100 | > 100 | > 100 | > 100 | > 100 | > 100 | > 100 | 50
13 | C=CCN1C(=O)C[C@H](Cc2ccccc2)NC(=O)C[C@H](Cc2ccccc2)N(CC=C)C(=O)C[C@H](Cc2ccccc2)NC(=O)C[C@@H]1Cc1ccccc1 | > 100 | > 100 | > 100 | > 100 | > 100 | > 100 | > 100 | > 100 | > 100 | > 100
14 | Cc1cccc(NC(=S)Nc2cccc(Cl)c2)n1 | > 100 | > 100 | > 100 | > 100 | > 100 | > 100 | > 100 | > 100 | > 100 | > 100
15 | COc1c(NC(C)=O)c2ccccc2c2ccccc12 | > 100 | > 100 | > 100 | > 100 | > 100 | > 100 | > 100 | > 100 | > 100 | > 100
16 | CCOP(=O)(OCC)C(c1ccccc1)N(C(=O)NC(F)(F)F)c1ccc(C)cc1 (stereo not given) | > 100 | > 100 | > 100 | > 100 | > 100 | > 100 | > 100 | > 100 | > 100 | > 100
